Test results from patent US20100120662A1, “Glucose uptake modulator and method for treating diabetes or diabetic complications” (POSTECH Foundation, priority 2005, published 2010).
Ends that are not written are not given here.

Columns and labels:
3T3-L1 adipocytes = test: [14C] 2-deoxy-D-glucose uptake in 3T3-L1 adipocytes; format: cell-based; settings: for effect of pretreatment on LPC-stimulated glucose uptake: then 20 μM LPC 10 min; for stimulation of glucose uptake: equimolar 20 μM, 10 min; for time and dose dependence of glucose uptake: various concentrations
Method: Cell culture: 3T3-L1 fibroblasts were grown to confluence in DMEM containing a high glucose concentration, 10% fetal bovine serum, 50 U of penicillin per ml, and 50 ug of streptomycin per ml and maintained in a 5% CO2 humidified atmosphere at 37° C. 3T3-L1 was induced to differentiate into adipocytes, as described previously (van den Berghe, N., et al., Mol Cell Biol 14, pp. 2372-2377, 1994).
Glucose uptake measurement. For measuring glucose uptake in 3T3-L1 adipocytes, cells were grown in serum-free DMEM for 16 h and then incubated in the absence or presence of insulin or lysophospholipids for the indicated times at 37° C. Uptake was measured by adding 1 μCi of [^14C] 2-deoxy-D-glucose and 3 mM 2-deoxy-D-glucose. After 10 min, the assay was terminated by two quick washes with ice-cold PBS. Cells were lysed in 0:5 ml of lysis buffer containing 0.5 N NaOH and 0.1% SDS. The cell lysates were used for liquid scintillation counting and nonspecific uptake was assayed in the presence of 10 μM cytochalasin B (van den Berghe, N., et al., Mol Cell Biol 14, pp. 2372-2377, 1994).
FIG. 2A to 2D show the effects of LPC on the glucose uptake in 3T3-L1 adipocytes. […] After these treatments, [^14C] 2-deoxy-D-glucose uptake was measured for 10 min as described in Material Methods. […] FIGS. 2C and 2D show relative [^14C] 2-deoxy-D-glucose uptake in 3T3-L1 adipocytes incubated in the absence (control) or presence of equimolar concentrations (20 μM) of myristoyl lysophosphatidylcholine (14:0 LPC), palmytoyl lysophosphatidylcholine (16:0 LPC), stearoyl lysophosphatidylcholine (18:0 LPC), palmytoyl lysophsophatidylethanolamine (16:0 LPE), palmytoyl lyso-phosphatidylinositol (16:0 LPI), palmytoyl lysophosphatidylglycerol (16:0 LPG) for 10 min. Values are mean±SE of three independent experiments performed in triplicate. *P<0.05 vs. basal.

male ICR mice [1] = test: Acute blood glucose lowering in normal ICR mice after intravenous lysophospholipid; format: in vivo, mouse; settings: for level of blood glucose in normal mice: intravenous, 0 to 120 min after dosing
insulin receptor (IR) = test: IR autophosphorylation in hIRcB cells; format: cell-based, human; settings: hIRcB cells
Method: FIG. 12A shown a comparison of insulin sensitizing effect among CRF family which was obtained by incubating cells with 1 μM CRF family and/or 2 nM insulin or with medium alone for 1 min. […] FIG. 12B was obtained by incubating cells with 2 nM insulin and variant dose of UCN (from 2 nM to 1 μM) for 1 min. FIG. 12C was obtained by incubating cells 100 nM UCN and variant dose of insulin for 1 min. Phosphorlyation of IR was assessed by western blotting with anti-pTyr antibodies. FIG. 13D was obtained by incubating cells with 100 nM UCN and/or 10 nM insulin for 0, 2, 10, 30, and 60 min, and then assessing the phosphorlyation of IR by western blotting with anti-pIR antibodies. Quantization of IR autophosphorylation was measured with image gauge software (Fuji film). The values are the mean±S.E. for three experiments. *, P<0.05
hIRcB cells were maintained in DMEM, supplemented with 10% (v/v) FBS. The cells were grown at 37° C. in a humidified atmosphere of 5% CO2 and 95% air.
After treatment of ligands as indicated time and dose, the cells were washed with cold PBS and lysed with lysis buffer (50 mM HEPES pH 7.5, 150 mM NaCl, 1%
Triton X-100, 1 mM EDTA, 10% glycerol) containing protease inhibitors (0.5 mM PMSF, 1 μg/ml leupeptin and 5 μg/ml aprotinin) and phosphatase inhibitors (30 mM NaF, 1 mM Na3VO4 and 30 mM Na4O7P2). The cell lysates were incubated for 1 hr at 4° C. After centrifugation (14,000×g for 15 min), equal amounts of soluble extract were incubated, for 4 hrs, with 5 μg of anti-IR antibody and 30 μl of resin volume of immobilized protein A. For gel electrophoresis, the precipitates were dissolved in Laemmli sample buffer. The sample was separated by SDS-PAGE and transferred to a nitrocellulose membrane (Schleicher and Schuell, BA85). Blocking was performed with TTBS buffer (10 mM Tris/HCl, pH 7.5, 150 mM NaCl, and 0.05% Tween 20) containing 5% skimmed milk powder. The membrane was probed with primary for 3 hrs at room temperature. Subsequently the immunoblot was washed and incubated with horseradish peroxidase-linked secondary antibody for 1 hr at room temperature, rinsed four times in TTBS buffer, and developed with horseradish peroxidase-dependent chemiluminescence reagents (Amersham International, United Kingdom).

GLUT4 = GLUT4 translocation to the plasma membrane in 3T3-L1 adipocytes; format: cell-based; settings: 100 nM insulin, 10 min
Method: Membrane fractionation of adipocytes. For obtaining total membranes (TM) from 3T3-L1 adipocytes, cells were collected into 10 ml of ice-cold HES buffer (250 mM sucrose, 1 mM EDTA, 1 mM phenylmethylsulfonyl fluoride [PMSF], 1 μM pepstatin, 1 μM aprotinin, 1 μM leupeptin, and 20 mM HEPES, pH 7.4) and subsequently homogenized with 30 strokes in a glass Dounce homogenizer at 4° C. After centrifugation at 1,000 g for 5 min at 4° C. to remove unbroken cells, the supernatant was then centrifugated at 212,000 g for 90 min at 4° C. to yield a pellet of total cellular membranes. To obtain the plasma membrane (PM) subcellular fraction from 3T3-L1 adipocytes, differential ultracentrifugation was used as described previously (Perrini, S., et al., Diabetes 53, pp. 41-52, 2004).
Immunoblotting. For preparing total cell lysates, 3T3-L1 adipocytes were washed with Ca^2+/Mg^2+-free PBS and then lysed in the lysis buffer (50 mM HEPES, pH 7.2, 150 mM NaCl, 50 mM NaF, 1 mM Na3VO4, 10% glycerol, 1% Triton X-100). The lysates were centrifuged at 15,000 rpm for 15 min at 4° C. […]
FIGS. 3A and 3B show LPC stimulates GLUT4 translocation in 3T3-L1 adipocytes. […] In each experiment, the relative increase or decrease in the integrated density value (IDV) of GLUT4 after stimulation with compounds is calculated. B) Quantitation of relative increases is depicted. […]

IRS1 and AKT = IRS1 and AKT phosphorylation in 3T3-L1 adipocytes (immunoblot); format: cell-based
Method: Immunoblotting. For preparing total cell lysates, 3T3-L1 adipocytes were washed with Ca^2+/Mg^2+-free PBS and then lysed in the lysis buffer (50 mM HEPES, pH 7.2, 150 mM NaCl, 50 mM NaF, 1 mM Na3VO4, 10% glycerol, 1% Triton X-100). The lysates were centrifuged at 15,000 rpm for 15 min at 4° C. The proteins were denatured by boiling in laemmli sample buffer for 5 min at 95° C., separated by SDS-PAGE. SDS-gel was transferred to nitrocellulose membrane using Hoefer wet transfer system. Membranes were blocked in TTBS (20 mM Tris-HCl, pH 7.6, 150 mM NaCl, 0.05% Tween 20) containing 5% skimmed milk powder for 30 min and then incubated with antibodies for 3 hours. After washing membranes several times with TTBS, the blots were incubated with HRP (Horseradish peroxidase)-conjugated goat anti-rabbit for 1 hour. The blots were washed with TTBS and developed by ECL.

male ICR mice [2] = test: Serum insulin level in mice after single intravenous injection; format: in vivo, mouse
Method: (§1) Animals. Male ICR mice were purchased from hyochang science (ROK). C57BLKSJ-db/db mice were purchased from SLC (Japan). After intravenous injection of LPC, blood glucose was measured regularly with a portable glucose meter (Gluco-Dr, ROK) after tail snipping. For measurement of serum insulin, blood samples of mice were determined with the insulin-RIA Kit (LINCO, Missouri). Insulin deficient mice were induced in male ICR mice by two consecutive daily intraperitoneal injection of STZ (200 mg/kg) dissolved in sodium citrate (pH 5.5). On the third day after the last STZ injection, acute glucose lowering effect was analyzed after intravenous injection of vehicle, LPC or insulin as described above.
(§2) Eight-week-old male mice were intravenously injected with PBS, insulin, LPC, or LPE. Blood glucose was monitored after dosing (0 to 120 min). […] All animals had free access to water. Animal care was in accordance with institutional guidelines. All data are shown as means±SE (n=5-6).*P<0.05.

[3] = system: STZ-treated insulin deficient ICR male mice; test: Acute glucose lowering in streptozotocin (STZ)-treated insulin deficient ICR mice; format: in vivo, mouse; settings: LPS injected, dose not given
Method: as §1, §2

[4] = 3T3-L1 adipocytes, 10 min incubation

Cn1c2ccccc2c2c3c(c4c5ccccc5n(CCC#N)c4c21)CNC3=O [Gö6976, reference compound]
effect of pretreatment on LPC-stimulated glucose uptake (3T3-L1 adipocytes; 2 μM Gö6976 for 30 min): did not alter LPC stimulation of glucose uptake

Cc1noc(-c2ccc(CSCCC(=O)O)cc2)c1NC(=O)OC(C)c1ccccc1Cl (stereo not shown) [Ki16425, reference compound]
effect on the glucose lowering effect by LPA (male ICR mice [1]; Ki16425 injected prior to administration of LPA): inhibited | effect of pretreatment on LPA-stimulated glucose uptake (3T3-L1 adipocytes; Ki16425 (LPA receptor antagonist) pretreatment): completely inhibited

CCCCCCCCCCCCC/C=C/[C@@H](O)[C@@H](N)COP(=O)(O)O [S1P]
level of blood glucose in normal mice (male ICR mice [1]; LPA study (FIG. 11A, 11B)): did not lower the blood glucose level in normal mice | level of blood glucose in normal mice (male ICR mice [1]; LPS study (FIG. 7A, 7B)): did not lower the blood glucose level in normal mice

CCCCCCCCCCCCCC(=O)OCC(O)COP(=O)([O-])OCC[N+](C)(C)C (stereo not shown) [myristoyl LPC, myristoyl lysophosphatidylcholine]
stimulation of glucose uptake (3T3-L1 adipocytes): stimulated glucose uptake

CCCCCCCCCCCCCCCC(=O)OC[C@@H](O)COP(=O)(O)OCCN [palmytoyl LPE, palmytoyl lysophsophatidylethanolamine]
level of blood glucose in normal mice (male ICR mice [1]; LPA study (FIG. 11A, 11B)): did not lower the blood glucose level in normal mice | level of blood glucose in normal mice (male ICR mice [1]; LPS study (FIG. 7A, 7B)): did not lower the blood glucose level in normal mice | stimulation of glucose uptake (3T3-L1 adipocytes): did not stimulate glucose uptake

CCCCCCCCCCCCCCCC(=O)OC[C@@H](O)COP(=O)(O)OCC(O)CO (stereo partly shown) [palmytoyl LPG, palmytoyl lysophosphatidylglycerol, reference compound]
stimulation of glucose uptake (3T3-L1 adipocytes): did not stimulate glucose uptake

CCCCCCCCCCCCCCCC(=O)OCC(O)COP(=O)(O)OC1C(O)C(O)C(O)C(O)C1O (stereo not shown) [palmytoyl LPI, palmytoyl lyso-phosphatidylinositol, reference compound]
stimulation of glucose uptake (3T3-L1 adipocytes): did not stimulate glucose uptake

CC(=O)c1c(O)c(C)c(O)c(Cc2c(O)c3c(c(C(=O)/C=C/c4ccccc4)c2O)OC(C)(C)C=C3)c1O [rottlerin, reference compound]
effect of pretreatment on LPC-stimulated glucose uptake (3T3-L1 adipocytes; 10 μM rottlerin for 30 min): completely inhibited

CCCCCCCCCCCCCCCCCC(=O)OCC(O)COP(=O)([O-])OCC[N+](C)(C)C (stereo not shown) [stearoyl LPC, stearoyl lysophosphatidylcholine, reference compound]
stimulation of glucose uptake (3T3-L1 adipocytes): did not stimulate glucose uptake

CRF: Corticotrophin releasing factor (CRF), synthesized from Anygen (SEEPPISLDLTFHLLREVLEMARAEQLAQQAHSNRKLMEII; ends and bridges not checked; UniProt P06850 154-194, looked up) [reference compound]
insulin-mediated IR phosphorylation (insulin receptor (IR); 1 μM CRF family peptide with 2 nM insulin, 1 min): potentate insulin-mediated IR phosphorylation | IR phosphorylation by peptide alone (insulin receptor (IR); without insulin): no effect on IR phosphorylation

insulin [reference compound]
GLUT4 translocation (GLUT4): stimulate GLUT4 translocation | phosphorylation of IRS1 and AKT (IRS1 and AKT; 10 nM insulin): augmentation of IRS1 and AKT phosphorylation

lysophosphatidic acid [LPA]
level of blood glucose in normal mice (male ICR mice [1]; LPA study (FIG. 11A, 11B)): lowered the level of blood glucose in normal mice dose-dependently | change in blood insulin levels (male ICR mice [2]): not due to changes in blood insulin levels | incubation time at which glucose uptake was maximally increased (3T3-L1 adipocytes; 20 μM, 0 to 20 min): 10 min | concentration of initial statistically significant effect on glucose uptake (3T3-L1 adipocytes; [4]): 1 µM | concentration of maximal effect on glucose uptake (3T3-L1 adipocytes; [4]): 20 µM | time and dose dependence of glucose uptake (3T3-L1 adipocytes; 3T3-L1 adipocytes): time- and dose-dependent increase in glucose uptake | Gαi dependence of glucose uptake stimulation (3T3-L1 adipocytes; Gαi inhibitor pertussis toxin): stimulates glucose uptake via to Gαi activation | PI3-kinase dependence of glucose uptake stimulation (3T3-L1 adipocytes; LY294002 pretreatment): dependent on PI3-kinase activation | Akt phosphorylation (IRS1 and AKT; LPA treatment of 3T3-L1 adipocytes): stimulated Akt phosphorylation

lysophosphatidylserine [LPS]
level of blood glucose in normal mice (male ICR mice [1]; LPS study (FIG. 7A, 7B)): lowered the level of blood glucose in normal mice dose-dependently | change in blood insulin levels (male ICR mice [2]): not due to changes in blood insulin levels | blood glucose concentrations in STZ-treated insulin deficient mice [3]: significantly reduced blood glucose concentrations | time and dose dependence of glucose uptake (3T3-L1 adipocytes; 3T3-L1 adipocytes): stimulate glucose uptake with dose dependent manner | stimulation of glucose uptake (3T3-L1 adipocytes): specifically stimulated glucose uptake
